In patent publication US9936701B2, “Herbicidal compounds” (Syngenta Participations AG, priority 2013, dated 2018):

System: a variety of test species
Test: Post-emergence herbicidal activity (glasshouse, sprayed after 8 days cultivation, evaluated after 13 days)
Assay type: in vivo
Set-up: key: 5=total damage to plant; 0=no damage to plant
Conditions: Abutilon theophrasti, rate 1000 g/Ha, scale 0-5
How it was run: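 Pot-grown seedlings sprayed 8 days after sowing with active ingredient in acetone/water (50:50) plus 0.5% Tween 20. Glasshouse at 24/16 °C day/night, 14 h light, 65% humidity, watered twice daily. Damage scored after 13 days on a 0–5 scale (5 = total damage, 0 = none).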

| Compound | ABUTH (Abutilon theophrasti) damage score, application post-emergence |
| --- | --- |
| COC1=C(C)CN(c2noc(C(C)(C)C)c2C#N)C1=O [D11, 5-tert-butyl-3-(4-methoxy-3-methyl-5-oxo-2H-pyrrol-1-yl)isoxazole-4-carbonitrile] | 5 |
| COC1=C(C)CN(c2cc(C(C)(C)C#N)on2)C1=O [D12] | 4 |
| CCC(C)(C)c1onc(N2CC(C)=C(OC)C2=O)c1C#N [D13] | 4 |
| COC1=C(Cl)C(O)N(c2cc(C(C)(C)C)on2)C1=O (stereo not shown) [E1, 1-(5-tert-butylisoxazol-3-yl)-3-chloro-2-hydroxy-4-methoxy-2H-pyrol-5-one] | 5 |

Same assay, conditions: Alopecurus myosuroides, rate 1000 g/Ha, scale 0-5

| Compound | ALOMY (Alopecurus myosuroides) damage score, application post-emergence |
| --- | --- |
| COC1=C(C)CN(c2noc(C(C)(C)C)c2C#N)C1=O [D11, 5-tert-butyl-3-(4-methoxy-3-methyl-5-oxo-2H-pyrrol-1-yl)isoxazole-4-carbonitrile] | 5 |
| COC1=C(C)CN(c2cc(C(C)(C)C#N)on2)C1=O [D12] | 4 |
| CCC(C)(C)c1onc(N2CC(C)=C(OC)C2=O)c1C#N [D13] | 5 |
| COC1=C(Cl)C(O)N(c2cc(C(C)(C)C)on2)C1=O (stereo not shown) [E1, 1-(5-tert-butylisoxazol-3-yl)-3-chloro-2-hydroxy-4-methoxy-2H-pyrol-5-one] | 3 |

Same assay, conditions: Amaranthus retroflexus, rate 1000 g/Ha, scale 0-5

| Compound | AMARE (Amaranthus retroflexus) damage score, application post-emergence |
| --- | --- |
| COC1=C(C)CN(c2noc(C(C)(C)C)c2C#N)C1=O [D11, 5-tert-butyl-3-(4-methoxy-3-methyl-5-oxo-2H-pyrrol-1-yl)isoxazole-4-carbonitrile] | 5 |
| COC1=C(C)CN(c2cc(C(C)(C)C#N)on2)C1=O [D12] | 5 |
| CCC(C)(C)c1onc(N2CC(C)=C(OC)C2=O)c1C#N [D13] | 5 |
| COC1=C(Cl)C(O)N(c2cc(C(C)(C)C)on2)C1=O (stereo not shown) [E1, 1-(5-tert-butylisoxazol-3-yl)-3-chloro-2-hydroxy-4-methoxy-2H-pyrol-5-one] | 5 |

Same assay, conditions: Echinochloa crus-galli, rate 1000 g/Ha, scale 0-5

| Compound | ECHCG (Echinochloa crus-galli) damage score, application post-emergence |
| --- | --- |
| COC1=C(C)CN(c2noc(C(C)(C)C)c2C#N)C1=O [D11, 5-tert-butyl-3-(4-methoxy-3-methyl-5-oxo-2H-pyrrol-1-yl)isoxazole-4-carbonitrile] | 5 |
| COC1=C(C)CN(c2cc(C(C)(C)C#N)on2)C1=O [D12] | 5 |
| CCC(C)(C)c1onc(N2CC(C)=C(OC)C2=O)c1C#N [D13] | 5 |
| COC1=C(Cl)C(O)N(c2cc(C(C)(C)C)on2)C1=O (stereo not shown) [E1, 1-(5-tert-butylisoxazol-3-yl)-3-chloro-2-hydroxy-4-methoxy-2H-pyrol-5-one] | 5 |

Same assay, conditions: Setaria faberi, rate 1000 g/Ha, scale 0-5

| Compound | SETFA (Setaria faberi) damage score, application post-emergence |
| --- | --- |
| COC1=C(C)CN(c2noc(C(C)(C)C)c2C#N)C1=O [D11, 5-tert-butyl-3-(4-methoxy-3-methyl-5-oxo-2H-pyrrol-1-yl)isoxazole-4-carbonitrile] | 5 |
| COC1=C(C)CN(c2cc(C(C)(C)C#N)on2)C1=O [D12] | 5 |
| CCC(C)(C)c1onc(N2CC(C)=C(OC)C2=O)c1C#N [D13] | 5 |
| COC1=C(Cl)C(O)N(c2cc(C(C)(C)C)on2)C1=O (stereo not shown) [E1, 1-(5-tert-butylisoxazol-3-yl)-3-chloro-2-hydroxy-4-methoxy-2H-pyrol-5-one] | 5 |

Same assay, conditions: Zea mays, rate 1000 g/Ha, scale 0-5

| Compound | ZEAMX (Zea mays) damage score, application post-emergence |
| --- | --- |
| COC1=C(C)CN(c2noc(C(C)(C)C)c2C#N)C1=O [D11, 5-tert-butyl-3-(4-methoxy-3-methyl-5-oxo-2H-pyrrol-1-yl)isoxazole-4-carbonitrile] | 4 |
| COC1=C(C)CN(c2cc(C(C)(C)C#N)on2)C1=O [D12] | 2 |
| CCC(C)(C)c1onc(N2CC(C)=C(OC)C2=O)c1C#N [D13] | 2 |
| COC1=C(Cl)C(O)N(c2cc(C(C)(C)C)on2)C1=O (stereo not shown) [E1, 1-(5-tert-butylisoxazol-3-yl)-3-chloro-2-hydroxy-4-methoxy-2H-pyrol-5-one] | 0 |

System: a variety of test species
Test: Pre-emergence herbicidal activity (glasshouse, sprayed one day after sowing, evaluated after 13 days)
Assay type: in vivo
Set-up: key: 5=total damage to plant; 0=no damage to plant
Conditions: ABUTH, application pre-emergence, rate 1000 g/Ha, scale 0-5
How it was run: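 Damage rated 13 days post-treatment on a 0-5 scale, 5 meaning total plant damage. Pots were sprayed pre-emergence, one day after sowing, with an acetone/water-derived aqueous spray containing 0.5% Tween 20. Plants grew under 14 h light, 65% humidity, 24/16 °C, watered twice daily.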

| Compound | Pre-emergence herbicidal damage score, ABUTH |
| --- | --- |
| COC1=C(C)CN(c2noc(C(C)(C)C)c2C#N)C1=O [D11, 5-tert-butyl-3-(4-methoxy-3-methyl-5-oxo-2H-pyrrol-1-yl)isoxazole-4-carbonitrile] | 4 |
| COC1=C(C)CN(c2cc(C(C)(C)C#N)on2)C1=O [D12] | 5 |
| CCC(C)(C)c1onc(N2CC(C)=C(OC)C2=O)c1C#N [D13] | 2 |
| COC1=C(Cl)C(O)N(c2cc(C(C)(C)C)on2)C1=O (stereo not shown) [E1, 1-(5-tert-butylisoxazol-3-yl)-3-chloro-2-hydroxy-4-methoxy-2H-pyrol-5-one] | 4 |

Same assay, conditions: ALOMY, application pre-emergence, rate 1000 g/Ha, scale 0-5

| Compound | Pre-emergence herbicidal damage score, ALOMY |
| --- | --- |
| COC1=C(C)CN(c2noc(C(C)(C)C)c2C#N)C1=O [D11, 5-tert-butyl-3-(4-methoxy-3-methyl-5-oxo-2H-pyrrol-1-yl)isoxazole-4-carbonitrile] | 4 |
| COC1=C(C)CN(c2cc(C(C)(C)C#N)on2)C1=O [D12] | 4 |
| CCC(C)(C)c1onc(N2CC(C)=C(OC)C2=O)c1C#N [D13] | 2 |
| COC1=C(Cl)C(O)N(c2cc(C(C)(C)C)on2)C1=O (stereo not shown) [E1, 1-(5-tert-butylisoxazol-3-yl)-3-chloro-2-hydroxy-4-methoxy-2H-pyrol-5-one] | 2 |

Same assay, conditions: AMARE, application pre-emergence, rate 1000 g/Ha, scale 0-5

| Compound | Pre-emergence herbicidal damage score, AMARE |
| --- | --- |
| COC1=C(C)CN(c2noc(C(C)(C)C)c2C#N)C1=O [D11, 5-tert-butyl-3-(4-methoxy-3-methyl-5-oxo-2H-pyrrol-1-yl)isoxazole-4-carbonitrile] | 5 |
| COC1=C(C)CN(c2cc(C(C)(C)C#N)on2)C1=O [D12] | 5 |
| CCC(C)(C)c1onc(N2CC(C)=C(OC)C2=O)c1C#N [D13] | 5 |
| COC1=C(Cl)C(O)N(c2cc(C(C)(C)C)on2)C1=O (stereo not shown) [E1, 1-(5-tert-butylisoxazol-3-yl)-3-chloro-2-hydroxy-4-methoxy-2H-pyrol-5-one] | 5 |

Same assay, conditions: ECHCG, application pre-emergence, rate 1000 g/Ha, scale 0-5

| Compound | Pre-emergence herbicidal damage score, ECHCG |
| --- | --- |
| COC1=C(C)CN(c2noc(C(C)(C)C)c2C#N)C1=O [D11, 5-tert-butyl-3-(4-methoxy-3-methyl-5-oxo-2H-pyrrol-1-yl)isoxazole-4-carbonitrile] | 5 |
| COC1=C(C)CN(c2cc(C(C)(C)C#N)on2)C1=O [D12] | 5 |
| CCC(C)(C)c1onc(N2CC(C)=C(OC)C2=O)c1C#N [D13] | 4 |
| COC1=C(Cl)C(O)N(c2cc(C(C)(C)C)on2)C1=O (stereo not shown) [E1, 1-(5-tert-butylisoxazol-3-yl)-3-chloro-2-hydroxy-4-methoxy-2H-pyrol-5-one] | 3 |

Same assay, conditions: SETFA, application pre-emergence, rate 1000 g/Ha, scale 0-5

| Compound | Pre-emergence herbicidal damage score, SETFA |
| --- | --- |
| COC1=C(C)CN(c2noc(C(C)(C)C)c2C#N)C1=O [D11, 5-tert-butyl-3-(4-methoxy-3-methyl-5-oxo-2H-pyrrol-1-yl)isoxazole-4-carbonitrile] | 5 |
| COC1=C(C)CN(c2cc(C(C)(C)C#N)on2)C1=O [D12] | 4 |
| CCC(C)(C)c1onc(N2CC(C)=C(OC)C2=O)c1C#N [D13] | 2 |
| COC1=C(Cl)C(O)N(c2cc(C(C)(C)C)on2)C1=O (stereo not shown) [E1, 1-(5-tert-butylisoxazol-3-yl)-3-chloro-2-hydroxy-4-methoxy-2H-pyrol-5-one] | 3 |

Same assay, conditions: ZEAMX, application pre-emergence, rate 1000 g/Ha, scale 0-5

| Compound | Pre-emergence herbicidal damage score, ZEAMX |
| --- | --- |
| COC1=C(C)CN(c2noc(C(C)(C)C)c2C#N)C1=O [D11, 5-tert-butyl-3-(4-methoxy-3-methyl-5-oxo-2H-pyrrol-1-yl)isoxazole-4-carbonitrile] | 3 |
| COC1=C(C)CN(c2cc(C(C)(C)C#N)on2)C1=O [D12] | 2 |
| CCC(C)(C)c1onc(N2CC(C)=C(OC)C2=O)c1C#N [D13] | 2 |
| COC1=C(Cl)C(O)N(c2cc(C(C)(C)C)on2)C1=O (stereo not shown) [E1, 1-(5-tert-butylisoxazol-3-yl)-3-chloro-2-hydroxy-4-methoxy-2H-pyrol-5-one] | 2 |

System: not given
Test: not given
Conditions: not given

| Compound | melting point [°C] |
| --- | --- |
| COC1=C(C)CN(c2noc(C(C)(C)C)c2C#N)C1=O [D11, 5-tert-butyl-3-(4-methoxy-3-methyl-5-oxo-2H-pyrrol-1-yl)isoxazole-4-carbonitrile] | 138 to 140 |
| COC1=C(C)CN(c2cc(C(C)(C)C#N)on2)C1=O [D12] | 103 to 105 |
| CCC(C)(C)c1onc(N2CC(C)=C(OC)C2=O)c1C#N [D13] | 72 to 74 |
| COC1=C(Cl)C(O)N(c2cc(C(C)(C)C)on2)C1=O (stereo not shown) [E1, 1-(5-tert-butylisoxazol-3-yl)-3-chloro-2-hydroxy-4-methoxy-2H-pyrol-5-one] | 123 to 133 |
